Test results from patent publication US10689383B2, “Optionally fused heterocyclyl-substituted derivatives of pyrimidine useful for the treatment of inflammatory, metabolic, oncologic and autoimmune diseases” (NUEVOLUTION A/S, priority 2014, dated 2020).

Key:
[1] = biological target: T1, human RORγt (Ligand Binding Domain) (Homo sapiens, UniProt P51449); assay: Fluorescence Polarization (FP) Assay; conditions: Fluorescence Polarization (FP) Assay; values given as upper bounds of activity ranges; read-out: FP activity range
T1 construct: purchased Crelux (Planegg, Germany) batch no PC5032-1
T1 sequence (P51449 269-508 limits assumed): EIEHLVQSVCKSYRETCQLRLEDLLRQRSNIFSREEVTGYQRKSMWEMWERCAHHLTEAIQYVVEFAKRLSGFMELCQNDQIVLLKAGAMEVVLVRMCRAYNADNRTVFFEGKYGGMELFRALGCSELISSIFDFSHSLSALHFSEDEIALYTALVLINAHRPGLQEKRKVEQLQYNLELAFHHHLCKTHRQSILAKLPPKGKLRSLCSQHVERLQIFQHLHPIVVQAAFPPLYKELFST
Procedure, shortened: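 In vitro FP binding assay monitoring ligand binding within the ligand binding pocket. Probe is a TAMRA-labelled RORγt ligand (MW 910 g/mole); DMSO served as negative control.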

[2] = biological target: T2, yeast Gal4-DNA binding domain fused to the ligand binding domain of human RORγ (Homo sapiens, UniProt P51449); assay: RORγ Reporter Assay (Gal4); assay type: cell-based; conditions: values given as lower bounds of ranges; for Gal4 activity range @ 0.1 μM (% inhibition): RORγ Reporter Assay (Gal4) at 0.1 μM; for Gal4 activity range @ 1 μM (% inhibition): RORγ Reporter Assay (Gal4) at 1 μM
T2 construct: host or cells: HEK293t
T2 sequence (P51449 269-508 limits assumed): T1 sequence (P51449 269-508 limits assumed)
Procedure, shortened: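 HEK293t reporter cells expressing the hybrid, with Gal4-UAS-driven firefly luciferase, treated in triplicate with compound at 1,000 nM and 100 nM (0.1% DMSO) in medium with 10% charcoal-stripped FBS for 24 h at 37 °C. Luminescence read; percent reduction of RLU calculated relative to vehicle.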

Question: How did the IC50 [1] turn out when CC1(CNc2ncnc(N3CCC[C@@H]3c3ccc(C(F)(F)F)cc3)c2F)CCCS1 (stereo partly drawn) [Example 201, 5-fluoro-N-[(2-methyltetrahydrothiophen-2-yl)methyl]-6-[(2R)-2-[4-(trifluoromethyl)phenyl]pyrrolidin-1-yl]pyrimidin-4-amine] was run?
Answer: < 500 nM

Question: What about the “Gal4 activity range @ 0.1 μM (% inhibition)” value [2] of the same compound?
Answer: >0 % inhibition

Question: And the “Gal4 activity range @ 1 μM (% inhibition)” value [2]?
Answer: >80 % inhibition

Question: Which IC50 [1] does the source give for Fc1c(NCC2CCOCC2)ncnc1N1CC(F)(F)CC1c1ccc(C(F)(F)F)cc1 (centres unmarked) [Example 259, 6-[4,4-difluoro-2-[4-(trifluoromethyl)phenyl]pyrrolidin-1-yl]-5-fluoro-N-(tetrahydropyran-4-ylmethyl)pyrimidin-4-amine] here?
Answer: < 500 nM

Question: And the “Gal4 activity range @ 0.1 μM (% inhibition)” value [2]?
Answer: >50 % inhibition

Question: And the “Gal4 activity range @ 1 μM (% inhibition)” value [2]?
Answer: >80 % inhibition

Question: What does the source list for OCCc1ccc(CNc2ncnc(N3CCCC3c3ccc(C(F)(F)F)cc3)c2F)cc1 (centres unmarked) [Example 128, 2-[4-[[[5-fluoro-6-[2-[4-(trifluoromethyl)phenyl]pyrrolidin-1-yl]pyrimidin-4-yl]amino]methyl]phenyl]ethanol]?
Answer: IC50 [1]: < 500 nM; Gal4 activity range @ 0.1 μM (% inhibition) [2]: >50 % inhibition

Question: How did the IC50 [1] turn out when COc1cc(CNc2ncnc(N3CCCC3c3ccc(C(F)(F)F)cc3)c2F)ccn1 (centres unmarked) [Example 113, 5-fluoro-N-[(2-methoxy-4-pyridyl)methyl]-6-[2-[4-(trifluoromethyl)phenyl]pyrrolidin-1-yl]pyrimidin-4-amine] was run?
Answer: < 500 nM

Question: And the “Gal4 activity range @ 0.1 μM (% inhibition)” value [2]?
Answer: >50 % inhibition

Question: What about the “Gal4 activity range @ 1 μM (% inhibition)” value [2] of the same compound?
Answer: >80 % inhibition

Question: How did the IC50 [1] turn out when NC(=O)Cc1ccc(CNc2ncnc(N3CCCC3c3ccc(C(F)(F)F)cc3O)c2F)cc1 (centres unmarked) [Example 323, 2-[4-[[[5-fluoro-6-[2-[2-hydroxy-4-(trifluoromethyl)phenyl]pyrrolidin-1-yl]pyrimidin-4-yl]amino]methyl]phenyl]acetamide] was run?
Answer: < 500 nM

Question: And the “Gal4 activity range @ 0.1 μM (% inhibition)” value [2]?
Answer: >80 % inhibition

Question: What about the “Gal4 activity range @ 1 μM (% inhibition)” value [2] of the same compound?
Answer: >80 % inhibition

Question: How did the IC50 [1] turn out when NC(=O)[C@@H](CC1CCOCC1)Nc1ncnc(N2CCCC2c2ccc(C(F)(F)F)cc2)c1F (stereo partly drawn) [Example 52, (2R)-2-[[5-fluoro-6-[2-[4-(trifluoromethyl)phenyl]pyrrolidin-1-yl]pyrimidin-4-yl]amino]-3-tetrahydropyran-4-yl-propanamide] was run?
Answer: < 2000 nM

Question: What about the “Gal4 activity range @ 1 μM (% inhibition)” value [2] of the same compound?
Answer: >80 % inhibition

Question: How did the IC50 [1] turn out when O=S(=O)(N1CCC(CNc2ncnc(N3CCOC[C@@H]3c3ccc(C(F)(F)F)cc3)c2F)CC1)C(F)(F)F [Example 263, 5-fluoro-6-[(3S)-3-[4-(trifluoromethyl)phenyl]morpholin-4-yl]-N-[[1-(trifluoromethylsulfonyl)-4-piperidyl]methyl]pyrimidin-4-amine] was run?
Answer: < 500 nM

Question: What about the “Gal4 activity range @ 0.1 μM (% inhibition)” value [2] of the same compound?
Answer: >50 % inhibition

Question: What about the “Gal4 activity range @ 1 μM (% inhibition)” value [2] of the same compound?
Answer: >80 % inhibition

Question: For Cc1ccc(CNc2nccc(N3CCCC3c3ccc(C(F)(F)F)cc3)c2F)cn1 (centres unmarked) [Example 66, 3-fluoro-N-[(6-methyl-3-pyridyl)methyl]-4-[2-[4-(trifluoromethyl)phenyl]pyrrolidin-1-yl]pyridin-2-amine], which IC50 [1] is on record?
Answer: < 2000 nM

Question: And the “Gal4 activity range @ 1 μM (% inhibition)” value [2]?
Answer: >50 % inhibition

Question: With Cc1ccc(C2CCCN2c2ncnc(NCc3ccc(CC(N)=O)cc3)c2F)o1 (centres unmarked) [Example 313, 2-[4-[[[5-fluoro-6-[2-(5-methyl-2-furyl)pyrrolidin-1-yl]pyrimidin-4-yl]amino]methyl]phenyl]acetamide] as the compound, how does the IC50 [1] read?
Answer: < 500 nM

Question: What about the “Gal4 activity range @ 0.1 μM (% inhibition)” value [2] of the same compound?
Answer: >20 % inhibition

Question: What about the “Gal4 activity range @ 1 μM (% inhibition)” value [2] of the same compound?
Answer: >80 % inhibition

Question: For Fc1c(NCC2(F)CCOCC2)ncnc1N1CCOC[C@@H]1c1ccc(C(F)(F)F)cc1 [Example 264, 5-fluoro-N-[(4-fluorotetrahydropyran-4-yl)methyl]-6-[(3S)-3-[4-(trifluoromethyl)phenyl]morpholin-4-yl]pyrimidin-4-amine], which IC50 [1] is on record?
Answer: < 500 nM

Question: What about the “Gal4 activity range @ 0.1 μM (% inhibition)” value [2] of the same compound?
Answer: >20 % inhibition

Question: And the “Gal4 activity range @ 1 μM (% inhibition)” value [2]?
Answer: >80 % inhibition

Question: What does the source list for NC(=O)Cc1ccc(Cn2ccc3c(N4CCOC[C@@H]4c4ccc(OC(F)(F)F)cc4)ncnc32)cc1 [Example 252, 2-[4-[[4-[(3S)-3-[4-(trifluoromethoxy)phenyl]morpholin-4-yl]pyrrolo[2,3-d]pyrimidin-7-yl]methyl]phenyl]acetamide]?
Answer: IC50 [1]: < 500 nM; Gal4 activity range @ 0.1 μM (% inhibition) [2]: >80 % inhibition; Gal4 activity range @ 1 μM (% inhibition) [2]: >80 % inhibition

Question: For CC1(CNc2ncnc(N3CCC[C@@H]3c3ccc(C(F)(F)F)cc3)c2F)CCOCC1 [Example 161, 5-fluoro-N-[(4-methyltetrahydropyran-4-yl)methyl]-6-[(2R)-2-[4-(trifluoromethyl)phenyl]pyrrolidin-1-yl]pyrimidin-4-amine], which IC50 [1] is on record?
Answer: < 500 nM

Question: What about the “Gal4 activity range @ 0.1 μM (% inhibition)” value [2] of the same compound?
Answer: >20 % inhibition

Question: Which results are given for OCC1(CNc2ncnc(N3CCC[C@@H]3c3ccc(C(F)(F)F)cc3)c2F)COC1 [Example 228, [3-[[[5-fluoro-6-[(2R)-2-[4-(trifluoromethyl)phenyl]pyrrolidin-1-yl]pyrimidin-4-yl]amino]methyl]oxetan-3-yl]methano1]?
Answer: IC50 [1]: < 500 nM; Gal4 activity range @ 0.1 μM (% inhibition) [2]: >20 % inhibition; Gal4 activity range @ 1 μM (% inhibition) [2]: >80 % inhibition

Question: Fc1c(NCC2CCSCC2)ncnc1N1CCC[C@@H]1c1ccc(C(F)(F)F)cc1 [Example 164, 5-fluoro-N-(tetrahydrothiopyran-4-ylmethyl)-6-[(2R)-2-[4-(trifluoromethyl)phenyl]pyrrolidin-1-yl]pyrimidin-4-amine] was tested. Which IC50 [1] did it give?
Answer: < 500 nM

Question: And the “Gal4 activity range @ 0.1 μM (% inhibition)” value [2]?
Answer: >20 % inhibition

Question: Which IC50 [1] does the source give for CNC(=O)C1(CNc2ncnc(N3CCOC[C@@H]3c3ccc(C(F)(F)F)cc3)c2F)CCOCC1 [Example 286, 4-[[[5-fluoro-6-[(3S)-3-[4-(trifluoromethyl)phenyl]morpholin-4-yl]pyrimidin-4-yl]amino]methyl]-N-methyl-tetrahydropyran-4-carboxamide] here?
Answer: < 2000 nM

Question: What about the “Gal4 activity range @ 0.1 μM (% inhibition)” value [2] of the same compound?
Answer: >20 % inhibition

Question: And the “Gal4 activity range @ 1 μM (% inhibition)” value [2]?
Answer: >20 % inhibition

Question: CCOc1ccc(C2CCCN2c2ncnc(NCc3ccc(CC(N)=O)cc3)c2F)cc1 (centres unmarked) [Example 301, 2-[4-[[[6-[2-(4-ethoxyphenyl)pyrrolidin-1-yl]-5-fluoro-pyrimidin-4-yl]amino]methyl]phenyl]acetamide] was tested. Which IC50 [1] did it give?
Answer: < 500 nM

Question: What about the “Gal4 activity range @ 0.1 μM (% inhibition)” value [2] of the same compound?
Answer: >50 % inhibition

Question: And the “Gal4 activity range @ 1 μM (% inhibition)” value [2]?
Answer: >80 % inhibition

Question: CS(=O)(=O)N1CCC(Cn2ccc3c(N4CCOC[C@@H]4c4ccc(OC(F)(F)F)cc4)ncnc32)CC1 [Example 290, (3S)-4-[7-[(1-methylsulfonyl-4-piperidyl)methyl]pyrrolo[2,3-d]pyrimidin-4-yl]-3-[4-(trifluoromethoxy)phenyl] morpholine] was tested. Which IC50 [1] did it give?
Answer: < 500 nM

Question: What about the “Gal4 activity range @ 0.1 μM (% inhibition)” value [2] of the same compound?
Answer: >50 % inhibition

Question: What about the “Gal4 activity range @ 1 μM (% inhibition)” value [2] of the same compound?
Answer: >80 % inhibition

Question: How did the IC50 [1] turn out when CC(C)(C)C[C@@H](Nc1ccnc(N2CCCC2c2ccc(C(F)(F)F)cc2)c1F)C(N)=O (stereo partly drawn) [Example 39, (2R)-2-[[3-fluoro-2-[2-[4-(trifluoromethyl)phenyl]pyrrolidin-1-yl]-4-pyridyl]amino]-4,4-dimethyl-pentanamide] was run?
Answer: < 10000 nM

Question: What about the “Gal4 activity range @ 1 μM (% inhibition)” value [2] of the same compound?
Answer: >20 % inhibition

Question: For Cc1ccc(CNc2ncnc(N3CCCC3c3ccc(OC(F)(F)F)cc3)c2F)cn1 (centres unmarked) [Example 97, 5-fluoro-N-[(6-methyl-3-pyridyl)methyl]-6-[2-[4-(trifluoromethoxy)phenyl]pyrrolidin-1-yl]pyrimidin-4-amine], which IC50 [1] is on record?
Answer: < 1000 nM

Question: What about the “Gal4 activity range @ 0.1 μM (% inhibition)” value [2] of the same compound?
Answer: >20 % inhibition

Question: And the “Gal4 activity range @ 1 μM (% inhibition)” value [2]?
Answer: >80 % inhibition

Question: How did the IC50 [1] turn out when Fc1c(NCc2ccc(Cl)nc2)ncnc1N1CCC[C@@H]1c1ccc(C(F)(F)F)cc1 [Example 183, N-[(6-chloro-3-pyridyl)methyl]-5-fluoro-6-[(2R)-2-[4-(trifluoromethyl)phenyl]pyrrolidin-1-yl]pyrimidin-4-amine] was run?
Answer: < 500 nM

Question: What about the “Gal4 activity range @ 0.1 μM (% inhibition)” value [2] of the same compound?
Answer: >50 % inhibition

Question: What does the source list for NC(=O)Cc1ccc(CNc2ncnc(N3CCCC3c3cccc(Cl)c3)c2F)cc1 (centres unmarked) [Example 306, 2-[4-[[[6-[2-(3-chlorophenyl)pyrrolidin-1-yl]-5-fluoro-pyrimidin-4-yl]amino]methyl]phenyl]acetamide]?
Answer: IC50 [1]: < 500 nM; Gal4 activity range @ 0.1 μM (% inhibition) [2]: >50 % inhibition; Gal4 activity range @ 1 μM (% inhibition) [2]: >80 % inhibition
